This is an account of results in patent publication US5023256A, “Pharmacologically active aminoimidazopyridines” (Dompe Farmaceutici S.p.A., priority 1989, dated 1991).

Data set [1] concerns sleeping time induced by pentobarbital. Description: Effect on the Sleeping Time Induced by Pentobarbital. It is filed as in vivo, male mice Swiss-Nos. To be noted: mouse, 25 mg/kg i.p. 30 minutes before 40 mg/kg i.p. sodium pentobarbital; increase vs control group. The protocol: Effect on the Sleeping Time Induced by Pentobarbital The tests were carried out on male mice Swiss-Nos (Nossan, Correzzana, Milano) weighing 20-24 g, on an empty stomach for 18 hrs, according to the method described by R. Turner (Screening Methods in Pharmacology, Acad. Press, pg 70, 1965). […] The narcosis start was considered from the moment when the animal, lying on its back, lost its straightening reflex. The narcosis end was considered from the moment when the animal recovered such reflex. The carrier or the compounds under examination were administered by intraperitoneal route at the dose 25 mg/kg, 30 minutes before the pentobarbital administration. The resulting data are expressed as sleeping time increase percent in the treated animal group in comparison to the control animal group.

Data set [2] relates to histamine-induced mortality. Description: Effect on the Mortality Induced by Histamine. It is filed as in vivo, male albino guinea pigs (Dunkin-Hartley). Particulars: Cavia porcellus, po; guinea pig, p.o. 60 minutes before 1,25 mg/kg i.v. histamine dihydrochloride; amount inhibiting 50% of mortality. The protocol:
Effect on the Mortality Induced by Histamine
The method described by Romer D. et al. (Med. Welt, 17, 791, 1966) was followed and the tests were carried out on male albino guinea pigs (Dunkin-Hartley), weighing 350-450 g, which were kept in cages with a grid floor, on an empty stomach for 24 hrs with water ad libitum.
The compounds under examination were dissolved in 0.5% carboxy methylcellulose and orally administered to the animals 60 minutes before that the same animals were intravenously treated with 1,25 mg/kg of histamine dihydrochloride dissolved in saline solution. In the control animals, treated with carboxymethyl cellulose, the histamine dihydrochloride solution, intravenously administered, induced a 100% mortality.
It was evaluated ED50 which corresponds to the amount of the compound able to inhibit 50% of the mortality induced by histamine: the estimation of ED50 was carried out applying the `probit` method (Finney D. J., Statistical methods in biological assay, pg 512, 1957).

The nature of data set [3]: Evaluation of the Lethal Dose50 (LD50), acute toxicity. Particulars: in vivo, ip; mouse, 14 days observation, probit method. The protocol:
Evaluation of the Lethal Dose50 (LD50)
The tests were carried out on Swiss Nos (Nossan; Correzzana, Milano) mice weighing 18-20 g each. The animals, divided into groups of 10 animals each (5M+5F), were on an empty stomach for 18 hrs, with water ad libitum, and kept in cages with a grid floor. The compounds (I) were dissolved in water or suspended in 0.5% carboxymethylcellulose and intraperitoneally administered to the animals (10 ml/kg). The number of mice which died within the following 6 hours was recorded. Upon the expiry of the sixth hour, the animals were allowed to eat up to the end of the experimentation which lasted 14 days. During this period all the toxic symptoms and the mortality occurring were noted.
The animals which died during the test period and those which were sacrificed at the end of the same, underwent autopsy for a macroscopic examination of their main organs. The experimental data were statistically compared with the X^2 method and LD50 was extrapolated by the `probit` method.

Structures are written as SMILES. A value given as a limit tells only on which side of the number the result lay.

Consider `CC(C)(C)c1ccc(C(O)CCCN2CCC(C(O)(c3ccccc3)c3ccccc3)CC2)cc1` (stereo not drawn) [Terfenadine, reference compound], for which the “Increase of sleeping time induced by pentobarbital” value (shortened to “Increase of sleeping time induced”) in data set [1] stood at 44%.

One may read the ED50 as the midpoint of the dose-response relation. A low value points to an effect at a small dose. As a reminder, the LD50 is the dose expected to kill half of the subjects tested. The low end stands for a more toxic substance, the high end for a less toxic substance. Consider `CN1CCN(c2nc3cccnc3n2Cc2ccccc2)CC1.O=C(O)/C=C/C(=O)O` [Example 1, 3-Benzyl-2-(4-methylpiperazin-1-yl)-3H-imidazo[4,5-b]pyridine fumarate], for which the 50% effect level in data set [2] (ED50) was put at a dose of 0.033 mg/kg. Moreover, the LD50 at 336 h in data set [3] is more than 100 mg/kg. Also, in data set [1], the “Increase of sleeping time induced” value stood at 183%.

`CN(C)CCNc1nc2cccnc2n1Cc1ccccc1.Cl.Cl` [Example 2, 3-Benzyl-2-(2-dimethylaminoethylamino)-3H-imidazo[4,5-b]pyridine dihydrochloride] returned a median lethal dose (LD50) at 336 h in data set [3] of more than 100 mg/kg. In data set [1], the “Increase of sleeping time induced” value is listed as 76%.
